Measurements taken from patent US5604211A, “Saccharide for supplementing energy to living body, and uses” (priority 1991, dated 1997).
One block for each molecule: values may come before it.

Key:
[1] = prior art, Japanese patent publications; cited from earlier work
amylases = conditions: Japanese Patent Laid-Open No.240,758/88; cited from earlier work
[2] = Digestion test in vitro, enzyme of small intestinal mucous membrane; assay type: in vitro ADME; conditions: small intestinal mucosal enzyme, Tables 1 and 2, read-out: Hydrolysis rate
Protocol: (§1) In accordance with the method reported in K. Okada et al., Journal of Japanese Society of Nutrition and Food Science, Vol.43, No.1, pp.23-29 (1990), a crystalline neotrehalose specimen formulated by the method in Example A1-2 was prepared as an aqueous solution which was then tested for its digestibility in vitro: The digestibility was determined with the following equation and expressed as hydrolysis rate (%): [formula]
Similarly as above, several kinds of disaccharides were tested for their digestibility using the enzyme of the small intestinal mucous membrane.

[3] = when the dose and administration method are not correctly chosen; cited from earlier work
[4] = Utilization test in vivo, intravenous instillation to healthy volunteers (blood sugar, insulin, urine); parameters: species or system human; conditions: for dose excreted: urine, 50000 mg, read-out: amount of glucose in the urine
Protocol: A neotrehalose specimen prepared by the method in Example A1-2 was treated to remove pyrogens in the usual manner, and 50 g of the resultant neotrehalose specimen was in accordance with the method reported in Matsuzaki, Yakubutsu Ryoho, Vol.6, No.2, pp.65-72 (1973), formulated as a 10 w/v % aqueous solution which was then intravenously administered to 2 healthy volunteers by instillation. Their blood was sampled at prescribed time intervals and blood sugar and insulin levels were measured, along with the amount of neotrehalose secreted in their urine. As controls, glucose and maltose were used.

dd mice = test: Acute toxicity test, oral, mice; assay type: in vivo, mouse; conditions: 7 week-old dd mice
Text: A crystalline neotrehalose specimen, prepared by the method in Example A1-2, was orally administered to 7 week-old dd mice as an acute toxicity test. […] Therefore, the toxicity of the tested substance appears to be extremely low.

[5] = Digestion test in vitro, gastric juice; assay type: in vitro ADME; conditions: Table 1, read-out: Hydrolysis rate
Protocol: as §1

[6] = Utilization test in vivo, oral administration to healthy volunteers (blood sugar and insulin); parameters: species or system human
Text: In accordance with the method described in H. Atsuji et al., Journal of Clinical Nutrition, Vol.41, Vol.2, pp.200-208 (1972), 30 g of a neotrehalose specimen was formulated as a 20 w/v % aqueous solution which was then orally administered to 3 healthy volunteers (men) and their blood was sampled at prescribed time intervals and tested for blood sugar and insulin levels. As a control, glucose was used.

[7] = Digestion test in vitro, amylopsin; assay type: in vitro ADME; conditions: Table 1, read-out: Hydrolysis rate
Protocol: as §1

[8] = Digestion test in vitro, salivary amylase; assay type: in vitro ADME; conditions: Table 1, read-out: Hydrolysis rate
Protocol: as §1

[9] = acidic conditions; cited from earlier work
[10] = human, 50 g as 10 w/v % aqueous solution, intravenous instillation, 2 healthy volunteers
[11] = 30 g as 20 w/v % aqueous solution, oral, 3 healthy volunteers, about
[12] = 50 g as 10 w/v % aqueous solution, intravenous instillation, 2 healthy volunteers

SMILES: OC[C@@H](O)[C@@H](O[C@H]1O[C@H](CO)[C@@H](O)[C@H](O)[C@H]1O)[C@H](O)[C@@H](O)CO [maltitol]
metabolism and utilization in vivo [1]: not readily metabolized and utilized in vivo

SMILES: OC[C@@H](O)[C@@H](O[C@@H]1O[C@H](CO)[C@H](O)[C@H](O)[C@H]1O)[C@H](O)[C@@H](O)CO [lactitol]
metabolism and utilization in vivo [1]: not readily metabolized and utilized in vivo

metabolised [2]: 0.4%
SMILES: OC[C@H]1O[C@H](O[C@H]2O[C@H](CO)[C@@H](O)[C@H](O)[C@H]2O)[C@H](O)[C@@H](O)[C@@H]1O [Trehalose (α,α-trehalose), α,α-trehalose]
hydrolysis by enzymes such as amylases (amylases): not readily hydrolyzed | metabolism and utilization in vivo [1]: not readily metabolized and absorbed by the human body

SMILES: OC[C@@H](O)[C@@H](O)[C@H](O)[C@@H](O)CO [sorbitol]
diarrhea [3]: acute diarrhea

dose excreted [4, 10]: < 20%
SMILES: OC[C@H]1O[C@H](O[C@H]2[C@H](O)[C@@H](O)[C@H](O)O[C@@H]2CO)[C@H](O)[C@@H](O)[C@@H]1O [Maltose, reference compound]

blood sugar level ([4]; human, in vivo, iv): greatly increased | insulin level ([4]; human, in vivo, iv): greatly increased | dose excreted [4, 10]: < 10%
SMILES: OC[C@H]1OC(O)[C@H](O)[C@@H](O)[C@@H]1O (stereo partly drawn) [glucose, reference compound]

SMILES: OC[C@H]1O[C@@H](O[C@H]2O[C@H](CO)[C@@H](O)[C@H](O)[C@H]2O)[C@H](O)[C@@H](O)[C@@H]1O [neotrehalose, O-α-D-glucopyranosyl β-D-glucopyranoside]
toxicity (dd mice): extremely low | highest administered dose without animal death (dd mice; difficult to administer a higher dose): 5 g | animal death (dd mice; up to 5 g): no animal death | metabolised [5]: 0% | metabolised [2]: 43% | time of maximum value of blood sugar level after oral administration [6, 11]: 0.5 to 1 h | time of maximum value of insulin level after oral administration [6, 11]: 0.5 to 1 h | behaviour of blood sugar and insulin levels compared with glucose ([6]; 30 g oral, control glucose): behaved similarly as glucose | metabolised [7]: 0% | blood sugar level [4, 12]: slightly increased | insulin level [4, 12]: did not greatly increase | dynamics of blood sugar and insulin compared with maltose ([4]; 50 g intravenous, controls glucose and maltose): the same dynamics as maltose | dose excreted [4, 10]: < 20% | metabolised [8]: 0%

SMILES: OC[C@@H](O)[C@H](O)[C@@H](O)CO [xylitol]
diarrhea [3]: acute diarrhea

metabolised [2]: 0.1%
SMILES: OC[C@H]1O[C@@H](O[C@@H]2O[C@H](CO)[C@@H](O)[C@H](O)[C@H]2O)[C@H](O)[C@@H](O)[C@@H]1O [Isotrehalose (β,β-trehalose), β,β-trehalose]

SMILES: OC[C@H]1O[C@@](CO)(O[C@H]2O[C@H](CO)[C@@H](O)[C@H](O)[C@H]2O)[C@@H](O)[C@@H]1O [Sucrose]
hydrolysis into glucose and fructose [9]: readily hydrolyzed
